Assay results from the NIST ThermoML archive (doi:10.1021/je700260f).
“And” between values parts separate entries of the source, which are not always exact repeats. Equal entries are not always repeated.

Settings: Liquid, Vibrating tube method

FC(C(F)(F)F)C(F)(F)F [1,1,1,2,3,3,3-heptafluoropropane]
Settings | mass density
323.15 K, 30843 kPa | 1467.7 kg/m3
323.15 K, 30885 kPa | 1467.8 kg/m3
323.15 K, 32658 kPa | 1474.5 kg/m3
323.15 K, 32686 kPa | 1474.5 kg/m3
323.15 K, 34384 kPa | 1480.6 kg/m3
323.15 K, 34387 kPa | 1480.4 kg/m3 and 1480.6 kg/m3
323.16 K, 14143 kPa | 1389.6 kg/m3
323.16 K, 14163 kPa | 1389.5 kg/m3
323.16 K, 14186 kPa | 1389.6 kg/m3
323.16 K, 14200 kPa | 1389.8 kg/m3
323.16 K, 14366 kPa | 1390.8 kg/m3
323.16 K, 14386 kPa | 1390.8 kg/m3
323.16 K, 14409 kPa | 1390.9 kg/m3
323.16 K, 14427 kPa | 1391.1 kg/m3
323.16 K, 14450 kPa | 1391.3 kg/m3
323.16 K, 14470 kPa | 1391.5 kg/m3
323.16 K, 14492 kPa | 1391.6 kg/m3
323.16 K, 14509 kPa | 1391.5 kg/m3
323.16 K, 16696 kPa | 1404.2 kg/m3
323.16 K, 16719 kPa | 1404.2 kg/m3
323.16 K, 16735 kPa | 1404.5 kg/m3
323.16 K, 16783 kPa | 1404.5 kg/m3
323.16 K, 29984 kPa | 1464.4 kg/m3
323.16 K, 30010 kPa | 1464.6 kg/m3
323.16 K, 30040 kPa | 1464.7 kg/m3
323.16 K, 30071 kPa | 1464.8 kg/m3
323.16 K, 30102 kPa | 1464.9 kg/m3
323.16 K, 30132 kPa | 1465 kg/m3
323.16 K, 30163 kPa | 1465.1 kg/m3
323.16 K, 30194 kPa | 1465.2 kg/m3
323.16 K, 30221 kPa | 1465.4 kg/m3
323.16 K, 30252 kPa | 1465.5 kg/m3
323.16 K, 30280 kPa | 1465.6 kg/m3
323.16 K, 30311 kPa | 1465.6 kg/m3
323.16 K, 30340 kPa | 1465.8 kg/m3
323.16 K, 30380 kPa | 1466 kg/m3
323.16 K, 30414 kPa | 1466.1 kg/m3
323.16 K, 30444 kPa | 1466.3 kg/m3
323.16 K, 30470 kPa | 1466.4 kg/m3
323.16 K, 30505 kPa | 1466.5 kg/m3
323.16 K, 30532 kPa | 1466.6 kg/m3
323.16 K, 30554 kPa | 1466.6 kg/m3
323.16 K, 30581 kPa | 1466.8 kg/m3
333.13 K, 1640 kPa | 1225.8 kg/m3
333.13 K, 1661 kPa | 1226.3 kg/m3
333.13 K, 1691 kPa | 1226.6 kg/m3
333.13 K, 1709 kPa | 1227.1 kg/m3
333.13 K, 1736 kPa | 1227.6 kg/m3
333.13 K, 1764 kPa | 1228 kg/m3
333.13 K, 1789 kPa | 1228.4 kg/m3
333.13 K, 1815 kPa | 1229 kg/m3
333.13 K, 1839 kPa | 1229.7 kg/m3
333.13 K, 1866 kPa | 1229.9 kg/m3
333.13 K, 1898 kPa | 1230.4 kg/m3
333.13 K, 1924 kPa | 1231 kg/m3
333.13 K, 1944 kPa | 1231.2 kg/m3
333.13 K, 1976 kPa | 1231.8 kg/m3
333.13 K, 2004 kPa | 1232.3 kg/m3
333.13 K, 2034 kPa | 1232.9 kg/m3
333.13 K, 2056 kPa | 1233.2 kg/m3
333.13 K, 2088 kPa | 1233.7 kg/m3
333.13 K, 2113 kPa | 1234.2 kg/m3
333.13 K, 2138 kPa | 1234.6 kg/m3
333.13 K, 2357 kPa | 1238.4 kg/m3
333.13 K, 2604 kPa | 1242.4 kg/m3
333.13 K, 2744 kPa | 1244.5 kg/m3
333.13 K, 2770 kPa | 1244.9 kg/m3
333.13 K, 2793 kPa | 1245.1 kg/m3
333.13 K, 2828 kPa | 1245.9 kg/m3
333.13 K, 2863 kPa | 1246.2 kg/m3
333.13 K, 2890 kPa | 1246.6 kg/m3
333.13 K, 2915 kPa | 1247.1 kg/m3
333.13 K, 2950 kPa | 1247.6 kg/m3
333.13 K, 3233 kPa | 1251.7 kg/m3
333.13 K, 3261 kPa | 1252.3 kg/m3
333.13 K, 3298 kPa | 1252.9 kg/m3
333.13 K, 3326 kPa | 1253.1 kg/m3
333.13 K, 3358 kPa | 1253.7 kg/m3
333.13 K, 3391 kPa | 1254.2 kg/m3
333.13 K, 3420 kPa | 1254.6 kg/m3
333.13 K, 3448 kPa | 1255 kg/m3
333.13 K, 3488 kPa | 1255.4 kg/m3
333.13 K, 3517 kPa | 1256 kg/m3
333.13 K, 3542 kPa | 1256.2 kg/m3
333.13 K, 3575 kPa | 1256.7 kg/m3
333.13 K, 3608 kPa | 1257.2 kg/m3
333.13 K, 3641 kPa | 1257.6 kg/m3
333.13 K, 3670 kPa | 1258.2 kg/m3
333.13 K, 3699 kPa | 1258.5 kg/m3
333.13 K, 3726 kPa | 1258.9 kg/m3
333.13 K, 3767 kPa | 1259.4 kg/m3
333.13 K, 3793 kPa | 1259.7 kg/m3
333.13 K, 3826 kPa | 1260.3 kg/m3
333.13 K, 3860 kPa | 1260.8 kg/m3
333.13 K, 3894 kPa | 1261.2 kg/m3
333.13 K, 3924 kPa | 1261.5 kg/m3
333.13 K, 3950 kPa | 1261.9 kg/m3
333.13 K, 3984 kPa | 1262.2 kg/m3
333.13 K, 4010 kPa | 1262.9 kg/m3
333.13 K, 4041 kPa | 1263.1 kg/m3
333.13 K, 4072 kPa | 1263.5 kg/m3
333.13 K, 4105 kPa | 1264 kg/m3
333.13 K, 4143 kPa | 1264.4 kg/m3
